Legend:
Assay in all cases: two-electrode voltage clamp, Xenopus oocytes
Type in all cases: cell-based
AgamOR8 = molecular target: T1, AgamOR8 (Anopheles gambiae, UniProt Q7PUT5); details: 0.1 uM to 0.1 mM; -80 mV, pH 7.4; inward current (agonist)
T1 sequence (Q7PUT5 1-399): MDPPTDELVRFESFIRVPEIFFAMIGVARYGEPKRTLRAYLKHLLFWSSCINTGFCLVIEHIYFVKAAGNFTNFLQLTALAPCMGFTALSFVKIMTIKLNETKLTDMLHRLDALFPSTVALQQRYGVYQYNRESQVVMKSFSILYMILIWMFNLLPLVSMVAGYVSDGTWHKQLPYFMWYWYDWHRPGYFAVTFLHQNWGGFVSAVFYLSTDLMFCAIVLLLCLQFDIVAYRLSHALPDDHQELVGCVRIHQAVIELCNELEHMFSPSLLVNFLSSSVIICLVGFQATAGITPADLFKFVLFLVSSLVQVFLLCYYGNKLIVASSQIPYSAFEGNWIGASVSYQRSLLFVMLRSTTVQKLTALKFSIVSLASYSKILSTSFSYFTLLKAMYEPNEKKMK
T1 sequence (Q7QCC7 1-478 partner): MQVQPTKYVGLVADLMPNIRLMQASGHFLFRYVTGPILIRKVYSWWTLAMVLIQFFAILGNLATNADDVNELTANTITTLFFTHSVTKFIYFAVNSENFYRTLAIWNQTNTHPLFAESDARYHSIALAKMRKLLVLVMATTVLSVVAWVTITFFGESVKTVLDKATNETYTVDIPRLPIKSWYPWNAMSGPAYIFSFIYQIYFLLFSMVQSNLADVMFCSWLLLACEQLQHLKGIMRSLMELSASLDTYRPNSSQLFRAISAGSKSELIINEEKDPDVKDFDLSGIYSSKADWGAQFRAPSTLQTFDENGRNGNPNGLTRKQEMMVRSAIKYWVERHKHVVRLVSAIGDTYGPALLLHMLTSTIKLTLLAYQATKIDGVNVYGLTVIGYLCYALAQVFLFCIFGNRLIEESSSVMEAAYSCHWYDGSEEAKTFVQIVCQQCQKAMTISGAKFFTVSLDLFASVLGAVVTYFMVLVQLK

AgamOR10/AgamOrco = molecular target: T2, AgamOR10/AgamOrco (Anopheles gambiae, UniProt B5U0U7); details: 0.01-1 mM; -80 mV, pH 7.4; outward (inhibitory) current
T2 sequence (B5U0U7 1-375): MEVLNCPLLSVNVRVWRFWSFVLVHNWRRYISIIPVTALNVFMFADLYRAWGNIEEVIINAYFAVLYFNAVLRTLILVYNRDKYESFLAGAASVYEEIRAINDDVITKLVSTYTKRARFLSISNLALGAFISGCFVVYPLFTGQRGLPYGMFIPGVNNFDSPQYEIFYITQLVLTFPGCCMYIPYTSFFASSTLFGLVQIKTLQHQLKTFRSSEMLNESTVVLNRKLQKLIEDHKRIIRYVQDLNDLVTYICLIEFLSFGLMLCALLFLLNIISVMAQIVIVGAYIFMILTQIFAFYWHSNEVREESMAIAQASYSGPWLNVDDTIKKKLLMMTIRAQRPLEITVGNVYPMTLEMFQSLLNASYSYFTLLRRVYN
T2 sequence (Q7QCC7 1-478 partner): T1 sequence (Q7QCC7 1-478 partner)

AgamOR40 = molecular target: T3, AgamOR40 (Anopheles gambiae, UniProt Q7PR01); details: 0.01-1 mM; -80 mV, pH 7.4; inward current (agonist)
T3 sequence (Q7PR01 1-454): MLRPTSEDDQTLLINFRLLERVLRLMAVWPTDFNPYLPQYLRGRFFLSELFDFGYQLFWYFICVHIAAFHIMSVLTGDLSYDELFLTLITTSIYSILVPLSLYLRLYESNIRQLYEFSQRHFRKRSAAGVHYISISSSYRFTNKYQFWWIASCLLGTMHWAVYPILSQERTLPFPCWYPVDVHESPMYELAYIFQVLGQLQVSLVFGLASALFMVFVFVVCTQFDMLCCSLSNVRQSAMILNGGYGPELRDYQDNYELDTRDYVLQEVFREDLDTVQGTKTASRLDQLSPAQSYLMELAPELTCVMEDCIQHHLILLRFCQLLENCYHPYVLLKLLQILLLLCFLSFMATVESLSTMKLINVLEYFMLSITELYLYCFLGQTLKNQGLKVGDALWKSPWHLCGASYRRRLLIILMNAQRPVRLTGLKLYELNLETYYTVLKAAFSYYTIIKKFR
T3 sequence (Q7QCC7 1-478 partner): T1 sequence (Q7QCC7 1-478 partner)

Structure (SMILES)	two-electrode voltage clamp, Xenopus oocytes (AgamOR40)	also measured
C=CC(O)CCCCC (stereo not shown) [1-octen-3-ol]		two-electrode voltage clamp, Xenopus oocytes (AgamOR8): generated robust, dose-dependent inward currents in response to 1-octen-3-ol
CC/C=C\C[C@H]1C(=O)CC[C@@H]1CC(=O)OC [BDR-4, methyl jasmonate]		two-electrode voltage clamp, Xenopus oocytes (AgamOR10/AgamOrco): The strongest outward currents were obtained with BDR-4 (methyl jasmonate)
CCN(CC)C(=O)c1cccc(C)c1 [DEET]	generated dose-dependent inward currents in response to DEET as well as to its best ligand, fenchone	
CC12CCC(C1)C(C)(C)C2=O (stereo not shown) [fenchone]	generated dose-dependent inward currents in response to DEET as well as to its best ligand, fenchone	
